Read-outs that look alike come from different tables or passages of the source.
Legend:
[1] = system: testosterone level in NCI-H295R cells; assay: cells; type: cell-based; conditions: Homo sapiens, NCI-H295R, 72 h; for IC50: read-out: Testosterone level in H295R (Elisa) IC50 nM
Experimental: The purpose of the experimental study was intended to detect the testosterone level in the NCI-H295R cells by adopting the Enzyme linked immunosorbent assay (ELISA), so as to evaluate the inhibitory effects of the compounds on the testosterone level in the NCI-H295R cells.
The H295R cells were purchased from ATCC, the cell complete medium contained DMEM: F12+ 10% FBS +0.00625 mg/ml insulin +0.00625 mg/ml transferrin+6.25 ng/ml selenium +1.25 mg/ml BSA+0.00535 mg/ml linoleic acid, and the cells were cultured in a 37°C, 5% CO2 incubator. The cells in the exponential growth phase were collected, and cultured in a cytokine-free medium (phenol red 1640-free +1% PS+10% css FBS+1.25 mg/ml BSA +0.00625 mg/ml insulin + 0.00625 mg/ml transferrin+6.25 ng/ml selenium+0.00535 mg/ml linoleic acid) for three days. The cells in the exponential growth phase were collected on the third day. The cell suspension was adjusted with a cytokine-free medium to a corresponding concentration and plated at 60000 cells/well, with the volume being 90 µL/well. Subsequently, 10 µL of the compounds at different concentrations was added and the plate was incubated in a CO2 incubator for three days. After the incubation was completed, according to the operation instructions for testosterone Elisa kit (Beyotime, PT872), 50 µL of the cell culture supernatant was collected from each well and centrifuged at 500 g for 5 min at room temperature and then the resulting supernatant was collected. The samples were added to the corresponding wells at 25 µl/well, and then formulated horseradish peroxidase labelled testosterone was added at 75 µl/well. The mixture was fully mixed for 10 seconds. The reaction wells were sealed with a plate-sealing film (white) and the mixture was incubated at room temperature in the dark for 120 min. The plate was washed three times with a volume of 300 µl per well, and then placed onto thick absorbent paper and dried. Chromogenic reagent TMB solution was added at 100 µl/well. The reaction wells were sealed with a plate-sealing film (white) and the mixture was incubated at room temperature in the dark for 15-20 min. Subsequently, a termination solution was added at 50 µl/well, and after the mixture was fully mixed, the absorbance value OD450 was immediately measured. The absorbance readings were processed using Graphpad Prim 8.0 software and S-shaped concentration curves were plotted and the IC50 values were calculated using a four-parameter non-linear regression model.

[2] = system: pregnenolone level in NCI-H295R cells; assay: cells; type: cell-based; conditions: Homo sapiens, 72 h; for inhibition at 0.1 µM: read-out: Pregnenolone level in H295R (Elisa) inh.% 100 nM; for inhibition at 1 µM: read-out: Pregnenolone level in H295R (Elisa) inh.% 1000 nM; for IC50: read-out: Pregnenolone level in H295R (Elisa) IC50 nM
Experimental: 2. The purpose of the experimental study was intended to detect the pregnenolone level in the NCI-H295R cells by adopting the Enzyme linked immunosorbent assay (ELISA), so as to evaluate the inhibitory effects of the compounds on the pregnenolone level in the NCI-H295R cells.
The H295R cells were purchased from ATCC (CRL-2128), the cell complete medium contained DMEM: F12+ 10% FBS +0.00625 mg/ml insulin+0.00625 mg/mL transferrin+6.25 ng/mL selenium+1.25 mg/mL BSA+0.00535 mg/mL linoleic acid, and the cells were cultured in a 37°C, 5% CO2 incubator. The cells in the exponential growth phase were collected, and cultured in a cytokine-free medium (phenol red 1640-free +1% PS+10% css FBS+1.25 mg/mL BSA +0.00625 mg/mL insulin+0.00625 mg/mL transferrin+6.25 ng/mL selenium+0.00535 mg/mL linoleic acid) for three days. The cells in the exponential growth phase were collected on the third day. The cell suspension was adjusted with a cytokine-free medium to a corresponding concentration and plated at 60000 cells/well, with the volume being 90 µL/well. Subsequently, 10 µL of the compounds at different concentrations was added and the plate was incubated in a CO2 incubator for three days. After the incubation was completed, the cell culture supernatant was collected and centrifuged at 2°C-8°C at 800×g for 10 min. The resulting supernatant was collected. Determination was carried out according to the operation instructions for pregnenolone Elisa kit (Antibodies-A73791), and the OD450 signal was read.
2.1 Standard curve plotting. The standard concentration was taken as the abscissa and the OD450 value as the ordinate, the coordinate points of various standards were connected with a smooth line and a curve was fitted according to the four parameter logistic (4-PL) method.
2.2 Sample quantification: The corresponding concentration (CONC) of testosterone/pregnenolone in the sample was calculated using the absorbance value of the sample and the standard curve. According to formula (1), the inhibition rate of the compound at various concentrations was calculated, and S-shaped concentration curves were plotted and the IC50 values (i.e., concentration of the compound at which the inhibition rate was 50%) were calculated using a three parameter non-linear regression model in Graphpad Prim 8.0 software. CONC cpd was the concentration of the treated group, and CONC ctrl was the average concentration value of the solvent control group. Inhibition rate% = 100%−CONCcpd /CONCctrl × 100% [formula] Table 3 Inhibitory effects of compounds on pregnenolone level in NCI-H295R cells

[3] = Pharmacokinetic test in mice; type: in vivo; conditions: mouse, male ICR mice, plasma; for Vd: read-out: Vdss
Experimental: 4.1. Experimental animals: Male ICR mice, 20-25 g, 6 mice/compound, were purchased from Chengdu Dossy Experimental Animals Co., Ltd.
4.2 Experimental design: on the day of the experiment, the ICR mice were randomly grouped according to their body weights. […] Table 6 Administration information
Before and after administration, 0.06 mL of blood was taken from the orbit under isoflurane anaesthesia and placed in an EDTAK2 centrifuge tube. The tube was centrifuged at 5000 rpm at 4°C for 10 min, and plasma was collected. […] Before analysis and detection, all samples were stored at -80°C, and the samples were quantitatively analysed by LC-MS/MS.

[4] = Pharmacokinetic test in rats; type: in vivo; conditions: rat, male SD rats, plasma; for Vd: read-out: Vdss
Experimental: 3.1 Experimental animals: Male SD rats (about 220 g, 6-8 weeks old, 6 rats/compound) were purchased from Chengdu Dossy Experimental Animals Co., Ltd.
3.2 Experimental design: On the day of the experiment, the SD rats were randomly grouped by body weight. […] Table 4 Administration information
Before and after the administration, 0.1 ml of blood was taken from the orbit of the animals under isoflurane anaesthesia and placed in an EDTAK2 centrifuge tube. The blood was centrifuged at 5000 rpm and 4°C for 10 min to collect plasma. […] Before analysis and detection, all samples were stored at -80°C. Table 5 Pharmacokinetic parameters of test compounds in plasma of rats

[5] = read-out: Testosterone level in H295R (Elisa) inh.% 100 nM, 100 nM compound, NCI-H295R cells, three days incubation
[6] = read-out: Testosterone level in H295R (Elisa) inh.% 1000 nM, 1000 nM compound, NCI-H295R cells, three days incubation
[7] = read-out: Testosterone level in H295R (Elisa) inh.% 100 nM
[8] = read-out: Testosterone level in H295R (Elisa) inh.% 1000 nM
[9] = po, intragastric administration (10 mg/kg)
[10] = intravenous administration (2.5 mg/kg)

Row | Compound | IC50 [1] [nM] | inhibition at 0.1 µM [1, 5] [%] | inhibition at 1 µM [1, 6] [%] | inhibition at 0.1 µM [2] [%] | inhibition at 1 µM [2] [%] | inhibition at 0.1 µM [1, 7] [%] | inhibition at 1 µM [1, 8] [%] | IC50 [2] [nM] | AUC(0-t) [3, 9] [ng·h/mL] | half-life [3, 9] [h] | AUC(0-t) [3, 10] [ng·h/mL] | clearance [3, 10] [mL/min/kg] | half-life [3, 10] [h] | Vd [3, 10] [L/kg] | AUC(0-t) [4, 9] [ng·h/mL] | half-life [4, 9] [h] | AUC(0-t) [4, 10] [ng·h/mL] | clearance [4, 10] [mL/min/kg] | half-life [4, 10] [h] | Vd [4, 10] [L/kg]
1 | COC1CN(CC(=O)N2CCC(/C=C/c3coc(CN4Cc5ccc(C(F)(F)F)cc5C4)cc3=O)CC2)C1 [Compound 18] | 100 | 80.8 | 92.5 | 40.7 | 50.5 |  |  |  |  |  |  |  |  |  |  |  |  |  |  | 
2 | O=C(OC1CC1)N1CCC(COc2coc(CN3Cc4ccc(OC5CC5)cc4C3)cc2=O)CC1 [Compound 27] | 50.1 | 78 | 68 | 65.5 | 67.5 |  |  |  |  |  |  |  |  |  |  |  |  |  |  | 
3 | O=C(N[C@H]1CC[C@H](/C=C/c2coc(CN3Cc4ccc(C(F)(F)F)cc4C3)cc2=O)CC1)[C@H]1CC1(F)F [Compound 90] | 73 |  |  | 43.4 | 67 | 80 | 85 | 119 | 40600 | 6.36 | 10600 | 3.67 | 6.73 | 1.73 |  |  |  |  |  | 
4 | Cc1nc(C(=O)N[C@H]2CC[C@H](/C=C/c3coc(CN4Cc5ccc(C(F)(F)F)cc5C4)cc3=O)CC2)co1 [Compound 84] |  |  |  |  |  |  |  | 121 |  |  |  |  |  |  |  |  |  |  |  | 
5 | Cn1cc(C(=O)N[C@H]2CC[C@H](COc3coc(CN4Cc5ccc(C(F)(F)F)cc5C4)cc3=O)CC2)cn1 [Compound 35] |  |  |  |  |  | 72.8 | 75.5 |  | 24200 | 2.85 | 12500 | 3.34 | 2.68 | 0.557 | 18300 | 2.84 | 9100 | 4.66 | 2.71 | 0.788
6 | O=C(N[C@H]1CC[C@H](CCc2coc(CN3Cc4ccc(C(F)(F)F)cc4C3)cc2=O)CC1)C1CC(F)(F)C1 [Compound 95] |  | 57 | 81 | 50 | 66 |  |  |  |  |  |  |  |  |  |  |  |  |  |  | 
7 | CS(=O)(=O)N1CC(OC(=O)N[C@H]2CC[C@H](COc3coc(CN4Cc5ccc(C(F)(F)F)cc5C4)cc3=O)CC2)C1 [Compound 64] |  |  |  |  |  | 73 | 75 |  |  |  |  |  |  |  | 10100 | 2.92 | 3440 | 12.1 | 2.65 | 2.09
8 | C=C1CC(C(=O)N[C@H]2CC[C@H](/C=C/c3coc(CN4Cc5ccc(C(F)(F)F)cc5C4)cc3=O)CC2)C1 [Compound 116] |  | 60 | 66 | 48 | 75 |  |  |  |  |  |  |  |  |  |  |  |  |  |  | 
9 | [2H]C([2H])([2H])C(=O)N[C@H]1CC[C@H](COc2coc(CN3Cc4ccc(C(F)(F)F)cc4C3)cc2=O)CC1 [Compound 33] | 68 |  |  |  |  |  |  |  | 8430 | 2.45 | 2090 | 19.9 | 0.908 | 1.19 | 19600 | 2.04 |  |  |  | 
10 | C/C(=C\[C@H]1CC[C@H](NC(=O)c2cnn(C)c2)CC1)c1coc(CN2Cc3ccc(C(F)(F)F)cc3C2)cc1=O [Compound 107] |  |  |  |  |  | 60 | 78 |  |  |  |  |  |  |  | 22500 | 4.15 | 6030 | 6.96 | 3.39 | 1.55
11 | O=C(CC1CC1)N1CCC(/C=C/c2coc(CN3Cc4ccc(C(F)(F)F)cc4C3)cc2=O)CC1 [Compound 52] | 98.2 |  |  |  |  | 55.8 | 74.9 |  |  |  |  |  |  |  | 10500 | 2.21 | 3300 | 12.3 | 1.37 | 1.39
12 | [2H]C([2H])([2H])C(=O)N[C@H]1CC[C@H](/C=C/c2coc(CN3Cc4ccc(C(F)(F)F)cc4C3)cc2=O)CC1 [Compound 80] |  | 71 | 84 | 38.1 | 59.1 |  |  | 190 |  |  |  |  |  |  |  |  |  |  |  | 
13 | O=c1cc(CN2Cc3ccc(C(F)(F)F)cc3C2)occ1/C=C/[C@H]1CC[C@H](NC(=O)[C@H]2C[C@H](F)C2)CC1 [Compound 101] |  |  |  |  |  | 73 | 71 |  |  |  |  |  |  |  | 11600 | 3.59 | 5640 | 7.45 | 2.96 | 1.47
14 | O=C(N[C@H]1CC[C@@H](COc2coc(CN3Cc4ccc(C(F)(F)F)cc4C3)cc2=O)CC1)C1COC1 [Compound 54] |  |  |  |  |  | 53.2 | 72.2 |  | 28100 | 2.97 | 5870 | 7.19 | 2.98 | 1.17 |  |  |  |  |  | 
